From US20150291532A1, “AMORPHOUS FORM OF QUINOLINE DERIVATIVE, AND METHOD FOR PRODUCING SAME” (Eisai R&D Management Co., Ltd., priority 2012, published 2015)

Legend:
[1] = Evaluation of solubility: dissolved concentration by the Paddle method, HPLC; format: physicochemical; conditions: approx. 40 mg in 100 mL fasting artificial intestinal juice pH 6.5, 37° C., 50 rpm; for Concentration of compound A at sampling time 5 minute: 5 min; for Concentration of compound A at sampling time 10 minute: 10 min; for Concentration of compound A at sampling time 20 minute: 20 min; for Concentration of compound A at sampling time 30 minute: 30 min; for Concentration of compound A at sampling time 45 minute: 45 min; for Concentration of compound A at sampling time 60 minute: 60 min
Method: The dissolved concentration of amorphous compound A obtained in Example 1 was measured by the Paddle method. Approximately 40 mg of amorphous compound A was loaded into an equipment for the elution test, and 500 μL of solution was sampled at 5, 10, 20, 30, 45 and 60 minutes each. The concentration of compound A in the solution was measured by HPLC. As a comparative control there was used B-form crystals of 4-(3-chloro-4-(cyclopropylaminocarbonyl)aminophenoxy)-7-methoxy-6-quinolinecarboxamide (see Patent Literature 2). Solvent: 100 mL of fasting artificial intestinal juice (buffer with pH 6.5, containing 29 mM NaH2PO4, 100 mM KCl, 7.5 mM lecithin, and 30 mM sodium taurocholate) Temperature: 37° C. Paddle rotational speed: 50 rpm Column: YMC-UltraHT C18 (product of YMC Inc., inner diameter: 2.0 mm, column length: 50 mm, particle size: 2 μm) Column temperature: 40° C. (using a column oven) Flow rate: 0.42 mL/min Mobile phase: Solution A and solution B were used for elution with the linear gradient shown in Table 1. Solution A H2O: CH3CN:HClO4*=990:10:1 (V/V/V) Solution B CH3CN:H2O:HClO4*=900:100:1 (V/V/V) (*: 70% aqueous solution) Injection volume: 10 μL Detection: Ultraviolet absorptiometer (measuring wavelength: 252 nm). Autosampler temperature: 10° C.

[2] = as above; format: physicochemical; conditions: general statement of advantageous effect

Compound	Concentration of compound A at sampling time 5 minute [1] [µg/mL]	Concentration of compound A at sampling time 10 minute [1] [µg/mL]	Concentration of compound A at sampling time 20 minute [1] [µg/mL]	Concentration of compound A at sampling time 30 minute [1] [µg/mL]	Concentration of compound A at sampling time 45 minute [1] [µg/mL]	Concentration of compound A at sampling time 60 minute [1] [µg/mL]	Solubility in water [2]
COc1cc2nccc(Oc3ccc(NC(=O)NC4CC4)c(Cl)c3)c2cc1C(N)=O [Amorphous A, 4-(3-chloro-4-(cyclopropylaminocarbonyl)aminophenoxy)-7-methoxy-6-quinolinecarboxamide]	4.90	5.36	5.63	5.52	5.41	5.31	excellent solubility in water
COc1cc2nccc(Oc3ccc(NC(=O)NC4CC4)c(Cl)c3)c2cc1C(N)=O [Crystalline B, 4-(3-chloro-4-(cyclopropylaminocarbonyl)aminophenoxy)-7-methoxy-6-quinolinecarboxamide, reference compound]	0.81	0.87	0.93	0.94	0.98	1.00	
